# In PubChem BioAssay AID330 (DTP/NCI, 2004):
# Several values for one entry are separate records, joined by “and”; a condition that tells them apart may be missing. Equal entries are not always repeated. Toxic doses and inconclusive results are not listed.
# System: P388 leukemia ip, CD2F1 mice, survival T/C
# Experiment: NCI In Vivo Anticancer Drug Screen. Data for tumor model P388 Leukemia (intraperitoneal) in CD2F1 (CDF1) mice
# Settings: endpoint: median survival time, higher = longer survival
# Procedure, shortened: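 Mice carrying the transplanted tumor received test compound or vehicle. Survival was recorded in each group, and the value is the treated-group measurement divided by that of the vehicle-treated control group.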
# [1] = dose: 50.0 mg/kg/injection, schedule: Q01DX005 (ip), vehicle: saline with Tween-80
# [2] = dose: 100.0 mg/kg/injection, schedule: Q01DX005 (ip), vehicle: saline with Tween-80
# [3] = dose: 200.0 mg/kg/injection, schedule: Q01DX005 (ip), vehicle: saline with Tween-80
# [4] = dose: 60.0 mg/kg/injection, schedule: Q01DX005 (ip), vehicle: Klucel (hydroxypropylcellulose) (HPC)
# [5] = dose: 120.0 mg/kg/injection, schedule: Q01DX005 (ip), vehicle: Klucel (hydroxypropylcellulose) (HPC)
# [6] = dose: 240.0 mg/kg/injection, schedule: Q01DX005 (ip), vehicle: Klucel (hydroxypropylcellulose) (HPC)
# [7] = dose: 50.0 mg/kg/injection, schedule: Q01DX009 (ip), vehicle: Klucel (hydroxypropylcellulose) (HPC)
# [8] = dose: 100.0 mg/kg/injection, schedule: Q01DX009 (ip), vehicle: Klucel (hydroxypropylcellulose) (HPC)
# [9] = dose: 200.0 mg/kg/injection, schedule: Q01DX009 (ip), vehicle: Klucel (hydroxypropylcellulose) (HPC)
# [10] = dose: 100.0 mg/kg/injection, schedule: Q04DX002 (ip), vehicle: saline with Tween-80
smiles,measurement,setting,value
CC(=O)C1(C)CCOC1=O (configuration not stated),T/C,[1],100 % of control
same,T/C,[2],100 % of control
same,T/C,[3],109 % of control
Cc1cc2nc(=O)cc(CCl)n2c(=O)n1C(=O)C(O)C(O)C(O)CO (configuration not stated),T/C,[1],109 % of control
same,T/C,[2],117 % of control
same,T/C,[3],113 % of control
O=C1NNC=Nc2nc3c(cc21)CCCC3,T/C,[4],98 % of control
same,T/C,[5],92 % of control
same,T/C,[6],94 % of control
Oc1c(O)c(Br)c(Br)c(Br)c1Br,T/C,"dose: 100.0 mg/kg/injection, schedule: Q01DX009 (ip), vehicle: saline",107 % of control and 95 % of control
same,T/C,"dose: 200.0 mg/kg/injection, schedule: Q01DX009 (ip), vehicle: saline",111 % of control
CCOC(=O)Cc1ccc(-c2cn3c(n2)sc2ccccc23)cc1,T/C,[7],112 % of control
same,T/C,[8],103 % of control
same,T/C,[9],100 % of control
Cn1c(/C=N/N2CCOCC2)cnc1[N+](=O)[O-],T/C,"dose: 50.0 mg/kg/injection, schedule: Q01DX009 (ip), vehicle: saline with Tween-80",106 % of control
same,T/C,"dose: 100.0 mg/kg/injection, schedule: Q01DX009 (ip), vehicle: saline with Tween-80",109 % of control
same,T/C,"dose: 200.0 mg/kg/injection, schedule: Q01DX009 (ip), vehicle: saline with Tween-80",110 % of control
C=C1C(=O)OC2/C=C(\C)CC/C=C(/C=O)C(O)C(OC(=O)C(C)C)C12 (configuration not stated),T/C,"dose: 5.0 mg/kg/injection, schedule: Q01DX009 (ip), vehicle: other",112 % of control
same,T/C,"dose: 20.0 mg/kg/injection, schedule: Q01DX009 (ip), vehicle: other",94 % of control
CC1(C)N=C(N)N=C(N)N1CCCCc1ccccc1,T/C,"dose: 6.25 mg/kg/injection, schedule: Q01DX005 (ip), vehicle: Klucel (hydroxypropylcellulose) (HPC)",110 % of control
same,T/C,"dose: 12.5 mg/kg/injection, schedule: Q01DX005 (ip), vehicle: Klucel (hydroxypropylcellulose) (HPC)",114 % of control
same,T/C,"dose: 25.0 mg/kg/injection, schedule: Q01DX005 (ip), vehicle: Klucel (hydroxypropylcellulose) (HPC)",118 % of control
COc1cc2c(cc1C(CC(=O)O)c1ccc3c(c1)OCO3)OCO2 (configuration not stated),T/C,[1],103 % of control
same,T/C,[2],105 % of control
same,T/C,[3],103 % of control
N=C(/C(=C/c1ccccc1)c1ccccc1)c1ccccc1,T/C,[7],107 % of control
same,T/C,[8],113 % of control
same,T/C,[9],118 % of control
Cc1c2cnccc2c(CO)c2[nH]c3ccccc3c12,T/C,"dose: 12.5 mg/kg/injection, schedule: Q04DX002 (ip), vehicle: saline with Tween-80",119 % of control
same,T/C,[10],163 % of control
CC1COCCOC(=O)COCC(=O)OCCOCC(C)O1 (configuration not stated),T/C,"dose: 100.0 mg/kg/injection, schedule: Q04DX003 (ip), vehicle: Klucel (hydroxypropylcellulose) (HPC)",107 % of control
same,T/C,"dose: 200.0 mg/kg/injection, schedule: Q04DX003 (ip), vehicle: Klucel (hydroxypropylcellulose) (HPC)",103 % of control
same,T/C,"dose: 400.0 mg/kg/injection, schedule: Q04DX003 (ip), vehicle: Klucel (hydroxypropylcellulose) (HPC)",93 % of control
CC(C)(C)N1C(=O)C(Cl)(C#N)C1c1ccccc1 (configuration not stated),T/C,[4],95 % of control
same,T/C,[5],92 % of control
same,T/C,[6],92 % of control
CNC(=O)n1nc(C)cc1C,T/C,"dose: 50.0 mg/kg/injection, schedule: Q01DX005 (ip), vehicle: distilled water + alcohol",108 % of control
same,T/C,"dose: 100.0 mg/kg/injection, schedule: Q01DX005 (ip), vehicle: distilled water + alcohol",102 % of control
same,T/C,"dose: 200.0 mg/kg/injection, schedule: Q01DX005 (ip), vehicle: distilled water + alcohol",108 % of control
CC(/C=C/c1ccc2c(c1)OCO2)=N\NC(N)=S,T/C,"dose: 3.13 mg/kg/injection, schedule: Q01DX005 (ip), vehicle: saline with Tween-80",104 % of control
same,T/C,"dose: 6.25 mg/kg/injection, schedule: Q01DX005 (ip), vehicle: saline with Tween-80",112 % of control
CCOC(CSCC#N)OCC,T/C,"dose: 12.5 mg/kg/injection, schedule: Q01DX009 (ip), vehicle: saline sonified",100 % of control
same,T/C,"dose: 25.0 mg/kg/injection, schedule: Q01DX009 (ip), vehicle: saline sonified",95 % of control
same,T/C,"dose: 50.0 mg/kg/injection, schedule: Q01DX009 (ip), vehicle: saline sonified",100 % of control
CN(c1ccccc1)C(C#N)c1n[nH]c(=O)[nH]1 (configuration not stated),T/C,"dose: 25.0 mg/kg/injection, schedule: Q04DX002 (ip), vehicle: saline with Tween-80",100 % of control
same,T/C,"dose: 50.0 mg/kg/injection, schedule: Q04DX002 (ip), vehicle: saline with Tween-80",100 % of control
same,T/C,[10],93 % of control
